Source: paper PMC4409382, “Structural Analysis of the 14-3-3ζ/Chibby Interaction Involved in Wnt/β-Catenin Signaling” (PLoS ONE, 2015)
Square brackets hold non-standard residues; d marks the D form. Ends that are not written are not given here. Peptide text beside a SMILES is read from it. pS = N[C@@H](COP(=O)(O)O)C(=O)O

Key:
[1] = target: T1, 14-3-3ζ (Homo sapiens, UniProt P63104); assay: ITC of Cby peptides titrated into 14-3-3ζ; assay type: binding; details: for n (binding stoichiometry of monomeric 14-3-3 and Cby peptide): 25°C; for T∆S / ∆G / ∆H / TΔS / ΔG / ΔH: 298.15 K; for T∆S / ∆G / ∆H: duplicate set (S1 Table); for TΔS / ΔG / ΔH: pH 6.8, Table 1 set of duplicate experiments
T1 construct: Both full-length 14-3-3ζ and 14-3-3ζΔC12 were expressed as N-terminally His-tagged protein; His tag (TEV-cleavable) (N, cleaved yes); made in house; host or cells: Escherichia coli BL21 (DE3) pLysS
T1 sequence (P63104 1-245): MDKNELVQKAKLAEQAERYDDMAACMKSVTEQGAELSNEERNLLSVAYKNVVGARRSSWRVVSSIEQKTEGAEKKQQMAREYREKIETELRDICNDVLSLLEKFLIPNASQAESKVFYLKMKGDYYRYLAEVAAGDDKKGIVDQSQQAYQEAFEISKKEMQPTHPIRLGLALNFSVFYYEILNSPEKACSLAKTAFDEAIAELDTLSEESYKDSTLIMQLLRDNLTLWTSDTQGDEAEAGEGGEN
Source text: The human14-3-3ζ ORF purchased from GeneCopoeia was transferred into Gateway pDEST17 vector (Invitrogen). The 14-3-3ζΔC12, where the 12 C-terminal residues were deleted, was then generated from the full-length construct using QuikChange II Site-Directed Mutagenesis Kit (Strategene). Both full-length 14-3-3ζ and 14-3-3ζΔC12 were expressed as N-terminally His-tagged protein in Escherichia coli (E. coli) BL21 (DE3) pLysS in M9 medium. For unlabeled protein, protein expression was induced at an O.D.600 of 0.9 by adding 0.75 mM IPTG at 18°C for 24 h. The ^15N, ^13C, ^2H labeled 14-3-3ζΔC12 was produced by growing E. coli in deuterated M9 medium. Cells adapted to 70% D2O were used to inoculate a 1 L culture of M9 prepared in 100% D2O. Cells were grown at 37°C and overexpression was induced at an O.D.600 of 0.6 with 0.75 mM IPTG. After a 60-h induction at 18°C, the cells were harvested. All 14-3-3ζ constructs used in this study were purified from the crude lysate by affinity chromatography using Ni Sepharose Fast Flow beads (Amersham Biosciences). The tag was then cleaved by overnight incubation with His-tagged tobacco etch virus (TEV) protease at 25°C. The cleaved 14-3-3ζ, which retains an N-terminal glycine, was purified by passing the mixture through Ni Sepharose Fast Flow beads. The final yields for the 14-3-3ζ proteins were ~50 mg per L of M9 media (including deuterated media).
The Cby peptides used in this study were purchased from GenScript USA Inc. and the TUFTS University Core Facility. From GenScript USA Inc.: Cby 13-mer (NH2-^12KTPPRKSASLSNL^24-COOH), Cby S20D 13-mer (NH2-^12KTPPRKSADLSNL^24-COOH), Cby S20E 13-mer (NH2-^12KTPPRKSAELSNL^24-COOH), pCby 13-mer (NH2-^12KTPPRKSApSLSNL^24-COOH) and pCby 18-mer ((NH2-^12KTPPRKSApSLSNLHSLDR^29-COOH). From TUFTS: pCby 7-mer (Ac-^16RKSApSLS^22-NH2), pCby 11-mer (NH2-^12KTPPRKSApSLS^22-NH2), pCby S22P 7-mer (Ac-^16RKSApSLP^22-NH2), pCby S22P 13-mer (NH2-^12KTPPRKSApSLPNL^24-COOH) and pCby S22P 18-mer ([…]). Peptides were dissolved and dialyzed in 50 mM sodium phosphate, 100 mM NaCl at pH 6.8 for ITC and NMR experiments.
ITC experiments were performed on a VP-ITC instrument (MicroCal) at 25°C. The protein and peptide samples were dialyzed into a buffer containing 50 mM sodium phosphate, 100 mM NaCl, 1 mM DTT at pH 6.8 and degassed before the experiments. In a typical experiment, 5 μL aliquots of ~1–2 mM peptide were titrated stepwise into the 1.4 mL sample cell containing ~100–200 μM 14-3-3ζ. The association constant (Ka), molar binding stoichiometry (n) and the binding enthalpy (ΔH), entropy (ΔS) and Gibbs free energy (ΔG) were determined by fitting the binding isotherm to a one-site model with MicroCal Origin7 software. All ITC experiments were performed in duplicate. A duplicate set of thermodynamic derived binding parameters are found in S1 Table. Peptide and protein concentrations were determined from amino acid analysis (Amino Acid Analysis Facility, SickKids, Toronto, ON).

[2] = target: T2, 14-3-3ζ (human, full-length) (human, UniProt P63104 1-245); assay: ITC; VP-ITC, 25°C; ~1-2 mM peptide titrated in 5 uL aliquots into ~100-200 uM 14-3-3ζ in the cell; 50 mM sodium phosphate, 100 mM NaCl, 1 mM DTT, pH 6.8; one-site model; in duplicate; details: both partners purified
T2 construct: N-terminal glycine retained after TEV cleavage of the His tag; 14-3-3ζ, human, ORF bought from GeneCopoeia, in Gateway pDEST17; full-length; Dimer in the crystal; the ITC stoichiometry counts on the 14-3-3 monomer; also called WT 14-3-3ζ; source: E. coli BL21 (DE3) pLysS, purified (Ni Sepharose, TEV cleavage, second Ni Sepharose pass); not shown: His tag, N-terminal, cleaved
T2 sequence: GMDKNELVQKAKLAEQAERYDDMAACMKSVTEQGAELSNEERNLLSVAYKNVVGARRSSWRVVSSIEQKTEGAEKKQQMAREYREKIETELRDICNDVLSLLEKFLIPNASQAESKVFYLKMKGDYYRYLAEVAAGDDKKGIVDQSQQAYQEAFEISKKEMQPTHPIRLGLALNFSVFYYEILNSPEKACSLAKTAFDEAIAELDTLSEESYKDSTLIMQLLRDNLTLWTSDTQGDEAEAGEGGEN

[3] = 50 mM sodium phosphate, 100 mM NaCl, 1 mM DTT, pH 6.8, one-site model, Table 1 set of duplicate experiments
[4] = pH 6.8, duplicate set (S1 Table)

CC(=O)N[C@@H](CCCNC(=N)N)C(=O)N[C@@H](CCCCN)C(=O)N[C@@H](CO)C(=O)N[C@@H](C)C(=O)N[C@@H](COP(=O)(O)O)C(=O)N[C@@H](CC(C)C)C(=O)N1CCC[C@H]1C(N)=O [Cby 7-mer S22P] (Ac-RKSA[pS]LP-NH2)
n (binding stoichiometry of monomeric 14-3-3 and Cby peptide) [1, 3]: 1.03 | n (binding stoichiometry of monomeric 14-3-3 and Cby peptide) [1, 4]: 1.02 | T∆S [1]: 1.29 kcal/mol | ∆G [1]: -7.50 ± 0.02 kcal/mol | ∆H [1]: -6.21 ± 0.02 kcal/mol | TΔS [1]: 1.39 kcal/mol | ΔG [1]: -7.55 ± 0.01 kcal/mol | ΔH [1]: -6.16 ± 0.01 kcal/mol

CC(=O)N[C@@H](CCCNC(=N)N)C(=O)N[C@@H](CCCCN)C(=O)N[C@@H](CO)C(=O)N[C@@H](C)C(=O)N[C@@H](COP(=O)(O)O)C(=O)N[C@@H](CC(C)C)C(=O)N[C@@H](CO)C(N)=O [Cby 7-mer] (Ac-RKSA[pS]LS-NH2)
n (binding stoichiometry of monomeric 14-3-3 and Cby peptide) [1, 3]: 1.01 | n (binding stoichiometry of monomeric 14-3-3 and Cby peptide) [1, 4]: 0.94 | T∆S [1]: 2.20 kcal/mol | ∆G [1]: -5.90 ± 0.02 kcal/mol | ∆H [1]: -3.70 ± 0.04 kcal/mol | TΔS [1]: 2.60 kcal/mol | ΔG [1]: -5.95 ± 0.03 kcal/mol | ΔH [1]: -3.35 ± 0.06 kcal/mol

CC(C)C[C@H](NC(=O)[C@H](COP(=O)(O)O)NC(=O)[C@H](C)NC(=O)[C@H](CO)NC(=O)[C@H](CCCCN)NC(=O)[C@H](CCCNC(=N)N)NC(=O)[C@@H]1CCCN1C(=O)[C@@H]1CCCN1C(=O)[C@@H](NC(=O)[C@@H](N)CCCCN)[C@@H](C)O)C(=O)N[C@@H](CO)C(N)=O [Cby 11-mer] (H-KTPPRKSA[pS]LS-NH2)
greater affinity compared to the Cby 7-mer (fold, in words) [1]: more than two-fold | Kd ([1]; 25°C (298.15 K), 50 mM sodium phosphate, 100 mM NaCl, 1 mM DTT, pH 6.8, one-site model, Table 1 set of duplicate experiments): 17.5 ± 0.6 µM | n (binding stoichiometry of monomeric 14-3-3 and Cby peptide) [1, 3]: 0.95 | n (binding stoichiometry of monomeric 14-3-3 and Cby peptide) [1, 4]: 0.96 | T∆S [1]: 3.22 kcal/mol | ∆G [1]: -6.49 ± 0.02 kcal/mol | ∆H [1]: -3.27 ± 0.02 kcal/mol | TΔS [1]: 3.23 kcal/mol | ΔG [1]: -6.49 ± 0.02 kcal/mol | ΔH [1]: -3.26 ± 0.02 kcal/mol

CC(C)C[C@H](NC(=O)[C@H](CC(N)=O)NC(=O)[C@@H]1CCCN1C(=O)[C@H](CC(C)C)NC(=O)[C@H](COP(=O)(O)O)NC(=O)[C@H](C)NC(=O)[C@H](CO)NC(=O)[C@H](CCCCN)NC(=O)[C@H](CCCNC(=N)N)NC(=O)[C@@H]1CCCN1C(=O)[C@@H]1CCCN1C(=O)[C@@H](NC(=O)[C@@H](N)CCCCN)[C@@H](C)O)C(=O)O [Cby 13-mer S22P] (H-KTPPRKSA[pS]LPNL-OH)
n (binding stoichiometry of monomeric 14-3-3 and Cby peptide) [1, 3]: 1.06 | n (binding stoichiometry of monomeric 14-3-3 and Cby peptide) [1, 4]: 1.02 | T∆S [1]: 3.33 kcal/mol | ∆G [1]: -8.03 ± 0.02 kcal/mol | ∆H [1]: -4.70 ± 0.01 kcal/mol | TΔS [1]: 3.49 kcal/mol | ΔG [1]: -8.13 ± 0.02 kcal/mol | ΔH [1]: -4.64 ± 0.01 kcal/mol

B1: pCby 7-mer (peptide)
peptide: Ac-RKSA[pS]LS-NH2
SMILES: CC(=O)N[C@@H](CCCNC(=N)N)C(=O)N[C@@H](CCCCN)C(=O)N[C@@H](CO)C(=O)N[C@@H](C)C(=O)N[C@@H](COP(=O)(O)O)C(=O)N[C@@H](CC(C)C)C(=O)N[C@@H](CO)C(N)=O
notes: also called 16RKSA(pS)LS22; pCby WT 7-mer; source: synthetic peptide, bought: TUFTS University Core Facility
Kd [2]: 43.5 µM | dH [2]: -3.35 ± 0.06 kcal/mol | stoichiometry N [2]: 1.01

B2: pCby S22P 7-mer (peptide)
peptide: Ac-RKSA[pS]LP-NH2
SMILES: CC(=O)N[C@@H](CCCNC(=N)N)C(=O)N[C@@H](CCCCN)C(=O)N[C@@H](CO)C(=O)N[C@@H](C)C(=O)N[C@@H](COP(=O)(O)O)C(=O)N[C@@H](CC(C)C)C(=O)N1CCC[C@H]1C(N)=O
notes: Chibby (Cby), human, residues 16-22 with S22P; also called Cby 7-mer S22P; 16RKSA(pS)LP22; source: synthetic peptide, bought: TUFTS University Core Facility
Kd [2]: 2.9 µM | dH [2]: -6.16 ± 0.01 kcal/mol | stoichiometry N [2]: 1.03

B3: Cby 18-mer L24A (phosphorylated) (peptide)
peptide: KTPPRKSA[pS]LSNAHSLDR
notes: Chibby (Cby), human, residues 12-29 with L24A; Not in the methods' list of peptides; also called Cby L24A 18-mer; source: synthetic peptide
Kd [2]: 21.3 µM | dH [2]: -1.56 ± 0.05 kcal/mol | stoichiometry N [2]: 0.99

B4: pCby S22P 13-mer (peptide)
peptide: KTPPRKSA[pS]LPNL
notes: Chibby (Cby), human, residues 12-24 with S22P; free NH2 and COOH ends; also called Cby 13-mer S22P; source: synthetic peptide, bought: TUFTS University Core Facility
Kd [2]: 1.1 µM | dH [2]: -4.64 ± 0.01 kcal/mol | stoichiometry N [2]: 1.06

B5: pCby 11-mer (peptide)
peptide: KTPPRKSA[pS]LS-NH2
modifications: N-terminus assumed
SMILES: CC(C)C[C@H](NC(=O)[C@H](COP(=O)(O)O)NC(=O)[C@H](C)NC(=O)[C@H](CO)NC(=O)[C@H](CCCCN)NC(=O)[C@H](CCCNC(=N)N)NC(=O)[C@@H]1CCCN1C(=O)[C@@H]1CCCN1C(=O)[C@@H](NC(=O)[C@@H](N)CCCCN)[C@@H](C)O)C(=O)N[C@@H](CO)C(N)=O
notes: Chibby (Cby), human, residues 12-22; free NH2 end; source: synthetic peptide, bought: TUFTS University Core Facility
Kd [2]: 17.5 µM | dH [2]: -3.26 ± 0.02 kcal/mol | stoichiometry N [2]: 0.95
